According to US7842715B2, “N-benzoyl- and N-benzylpyrrolidin-3-ylamines as histamine-3 antagonists” (Wyeth LLC, priority 2006, dated 2010):
Structures can show the parent of a compound that is named as a salt.

Legend:
Histamine Receptor H3 = molecular target: T1, Histamine Receptor H3 (Homo sapiens, UniProt Q9Y5N1); assay: Cyclic AMP assay for histamine receptor H3 antagonism activity; assay type: cell-based; settings: stable H3 cells; histamine plus 10 μM forskolin; 30 min at 30° C.; read-out: cAMP Kb
T1 construct: expressed in transfected cells
T1 sequence (Q9Y5N1 whole entry): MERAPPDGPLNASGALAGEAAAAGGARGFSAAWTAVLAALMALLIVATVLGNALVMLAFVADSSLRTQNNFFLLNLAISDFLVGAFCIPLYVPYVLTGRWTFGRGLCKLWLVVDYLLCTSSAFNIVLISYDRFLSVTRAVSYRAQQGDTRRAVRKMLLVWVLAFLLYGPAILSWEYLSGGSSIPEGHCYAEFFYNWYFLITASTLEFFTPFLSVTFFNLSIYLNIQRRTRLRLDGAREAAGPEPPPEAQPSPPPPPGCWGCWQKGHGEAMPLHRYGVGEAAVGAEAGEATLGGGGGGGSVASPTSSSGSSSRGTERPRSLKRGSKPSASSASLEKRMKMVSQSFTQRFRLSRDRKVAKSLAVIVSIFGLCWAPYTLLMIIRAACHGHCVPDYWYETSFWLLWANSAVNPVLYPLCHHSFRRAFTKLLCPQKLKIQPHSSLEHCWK
Protocol: Cyclic AMP Assay for Histamine Receptor H3 Antagonism Activity.
Stable H3 cells are maintained in tissue culture flask in DMEM with high glucose, 10% FBS, 1× pen/strep, 500 ug/ml GY18, until experiment. Culture media is removed and cells are washed twice with PBS w/ Ca++ and Mg++ plus 500 μM IBMX. Cells are then detached by tapping on the side of the flask and resuspend in the same buffer. Two thousand cells/well are incubated with […] histamine plus 10 μM forskolin plus various concentrations of compounds in a total volume of 30 μL in 96 well plates for 30 min at 30° C. Final test compound concentrations range from 10^-4M to 10-9.5M at full log dilutions. Cyclic AMP levels are measured using HitHunter cAMP kit from Discoverx, cat# 900041 according to manufacturer's instruction. Chemiluminescence signals are detected using Top Count (Packard). Cyclic AMP levels in control cells receiving 10 μM forskolin plus 100 nM histamine are considered 0%, and in cells receiving 10 uM forskolin plus 100 nM histamine plus 1 μM clobenpropit are considered 100%. Data are expressed as % control and analyzed using Prizm soft ware. The Kb values are calculated using the following equation, KB=EC50 or IC50/[1+(ligand/Kd)].

melting point | Kb (Histamine Receptor H3) | SMILES
82 to 84 °C | – | COc1cccc(Oc2ccc(C(=O)N3CC[C@H](N4CCCC4)C3)cc2)c1 (as salt: hydrochloride) [Example 36, (3′S)-1′-[4-(3-methoxyphenoxy)benzoyl]-1,3′-bipyrrolidine]
123 to 125 °C | – | Cc1cc(Cl)ccc1Oc1ccc(C(=O)N2CC[C@H](N3CCCC3)C2)cc1 (as salt: hydrochloride) [Example 39, (3′S)-1′-[4-(4-chloro-2-methylphenoxy)benzoyl]-1,3′-bipyrrolidine]
124 to 126 °C | – | Cc1ccc(Oc2ccc(C(=O)N3CC[C@H](N4CCCC4)C3)cc2)c(Cl)c1 (as salt: hydrochloride) [Example 40, (3′S)-1′-[4-(2-chloro-4-methylphenoxy)benzoyl]-1,3′-bipyrrolidine]

The remaining lines, values behind:

SMILES | melting point | Kb (Histamine Receptor H3)
CN(C)C1CCN(C(=O)c2ccc(NC(=O)c3ccc4ccccc4n3)cc2)C1 (stereo not drawn) [Example 17, N-(4-{[3-(dimethylamino)pyrrolidin-1-yl]carbonyl}phenyl)quino-line-2-carboxamide] | – | 57 nM
Cc1ccc(Oc2ccc(C(=O)N3CC[C@H](N4CCCC4)C3)cc2)cc1 (as salt: hydrochloride) [Example 35, (3′S)-1′-[4-(4-methylphenoxy)benzoyl]-1,3′-bipyrrolidine] | 98 to 100 °C | –
Cc1csc2c(Nc3ccc(C(=O)N4CCC(N(C)C)C4)cc3)ncnc12 (stereo not drawn) [Example 7, N-(4-{[3-(dimethylamino)pyrrolidin-1-yl]carbonyl}phenyl)-7-methylthieno[3,2-d]pyrimidin-4-amine] | – | 14 nM
